Blank lines part the entries; values can stand above or below the compound they belong to.
Columns and labels:
[1] = target: 3',5'-cyclic-AMP phosphodiesterase 4B (Homo sapiens, UniProt Q07343); assay: Inhibition of human recombinant PDE4B2 expressed in baculovirus expression system using cAMP as substrate incubated for 2 hrs by HTRF assay
[2] = target: Muscarinic acetylcholine receptor M3 (Homo sapiens, UniProt P20309); assay: Displacement of [3H]N-methylscopolamine chloride from human muscarinic M3 receptor incubated for 2 hrs by radioligand binding assay
Chain of Muscarinic acetylcholine receptor M3 (P20309 whole entry): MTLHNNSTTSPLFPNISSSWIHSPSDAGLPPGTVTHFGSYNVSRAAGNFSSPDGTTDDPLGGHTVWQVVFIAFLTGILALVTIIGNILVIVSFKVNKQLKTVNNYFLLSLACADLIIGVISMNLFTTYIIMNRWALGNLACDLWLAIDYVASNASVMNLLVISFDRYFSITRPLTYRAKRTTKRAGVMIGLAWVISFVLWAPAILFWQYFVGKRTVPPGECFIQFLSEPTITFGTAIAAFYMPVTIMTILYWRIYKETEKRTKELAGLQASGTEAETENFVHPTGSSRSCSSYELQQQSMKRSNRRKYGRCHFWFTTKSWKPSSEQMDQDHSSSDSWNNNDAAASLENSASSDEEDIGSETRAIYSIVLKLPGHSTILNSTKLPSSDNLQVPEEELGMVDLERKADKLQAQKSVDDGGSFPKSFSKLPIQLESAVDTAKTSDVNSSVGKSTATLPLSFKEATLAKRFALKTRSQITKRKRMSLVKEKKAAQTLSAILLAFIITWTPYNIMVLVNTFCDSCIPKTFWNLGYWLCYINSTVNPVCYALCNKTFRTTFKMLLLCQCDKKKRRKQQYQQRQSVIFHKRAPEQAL

[3] = Ratio of ED50 for Anti-inflammatory activity against OVA-sensitized Brown-Norway rat airway inflammation model to ED50 for Anti-bronchospastic activity in carbachol-induced bronchospasm Sprague-Dawley rat model; format: functional
Rattus norvegicus [4] = assay: Anti-bronchospastic activity in carbachol-induced bronchospasm Sprague-Dawley rat model assessed as inhibition of carbachol-induced bronchoconstriction administered IT(Intratracheal) for 1 hr prior to carbachol challenge; format: functional; conditions: Rattus norvegicus, Sprague-Dawley, read-out: ED50
Trachea = assay: Bronchoconstriction activity in Sprague-Dawley rat trachea assessed as inhibition of carbachol-induced tracheal contraction; format: functional, tissue-based; conditions: for IC50: Rattus norvegicus, Sprague-Dawley, Trachea
[5] = Antiinflammatory activity against LPS-stimulated human PBMC cells assessed reduction in TNFalpha level incubated for 18 hrs by ELISA analysis; format: functional, cell-based; conditions: for IC50: Homo sapiens, PBMC, 18 h
Rattus norvegicus [6] = assay: Anti-bronchospastic activity in carbachol-induced bronchospasm Sprague-Dawley rat model assessed as inhibition of carbachol-induced bronchoconstriction at 10 nmol/kg, IT(Intratracheal) administered 16 hr prior to carbachol challenge; format: functional; design: scale not given: the % may be the effect or the level left
Rattus norvegicus [7] = assay: Anti-inflammatory activity against OVA-sensitized Brown-Norway rat airway inflammation model assessed as inhibition of OVA-induced eosinophil influx administered IT(Intratracheal) 2 hrs prior to OVA challenge; format: functional
Rattus norvegicus [8] = assay: Anti-bronchospastic activity in carbachol-induced bronchospasm Sprague-Dawley rat model assessed as inhibition of carbachol-induced bronchoconstriction at 10 nmol/kg, IT(Intratracheal) administered 1 hr prior to carbachol challenge; format: functional; design: scale not given: the % may be the effect or the level left
[9] = Metabolic stability in human plasma assessed as half life at 5 uM and measured upto 180 mins by HPLC-MS/MS analysis; format: ADME, cell-free
[10] = Metabolic stability in rat liver microsomes assessed as intrinsic clerance at 1 uM and measured upto 60 mins by HPLC-MS/MS analysis; format: ADME, Microsome; conditions: microsomes, 1 h, 1 µM
[11] = Metabolic stability in human lung S9 fraction assessed as half life at 1 uM and measured upto 60 mins in presence of NADPH by LC-MS/MS analysis; format: ADME, subcellular
[12] = Metabolic stability in human liver microsomes assessed as intrinsic clerance at 1 uM and measured upto 60 mins by HPLC-MS/MS analysis; format: ADME, Microsome
[13] = Metabolic stability in rat lung S9 fraction assessed as half life at 1 uM and measured upto 60 mins in presence of NADPH by LC-MS/MS analysis; format: ADME, subcellular; conditions: s9, 1 h, 1 µM, 1 h
[14] = Metabolic stability in rat plasma assessed as half life at 5 uM and measured upto 180 mins by HPLC-MS/MS analysis; format: ADME, cell-free

Chain of 3',5'-cyclic-AMP phosphodiesterase 4B (Q07343 whole entry): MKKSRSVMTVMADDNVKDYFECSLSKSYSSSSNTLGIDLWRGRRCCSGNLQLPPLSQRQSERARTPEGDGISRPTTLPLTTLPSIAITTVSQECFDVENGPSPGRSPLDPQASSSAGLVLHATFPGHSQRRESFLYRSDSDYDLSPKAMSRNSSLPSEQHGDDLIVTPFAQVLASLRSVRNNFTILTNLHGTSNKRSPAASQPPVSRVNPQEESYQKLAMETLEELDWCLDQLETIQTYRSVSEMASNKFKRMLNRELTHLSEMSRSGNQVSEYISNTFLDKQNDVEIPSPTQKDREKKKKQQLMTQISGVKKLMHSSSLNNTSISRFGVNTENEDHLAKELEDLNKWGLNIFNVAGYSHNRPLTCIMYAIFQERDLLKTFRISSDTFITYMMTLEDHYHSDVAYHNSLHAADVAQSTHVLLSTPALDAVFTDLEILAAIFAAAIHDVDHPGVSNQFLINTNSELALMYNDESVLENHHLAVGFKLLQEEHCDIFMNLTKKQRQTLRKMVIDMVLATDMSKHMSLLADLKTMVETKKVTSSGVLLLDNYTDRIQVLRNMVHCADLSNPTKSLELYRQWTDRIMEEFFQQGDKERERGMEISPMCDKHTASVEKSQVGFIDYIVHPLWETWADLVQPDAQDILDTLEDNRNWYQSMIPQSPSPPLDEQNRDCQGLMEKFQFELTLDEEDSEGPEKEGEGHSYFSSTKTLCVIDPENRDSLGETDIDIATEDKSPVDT

IC50 [1]: 0.501 nM
SMILES: CS(=O)(=O)N1CCC[C@H]1C(=O)O[C@@H](Cc1c(Cl)c[n+]([O-])cc1Cl)c1ccc(OC(F)F)c(OCC2CC2)c1

IC50 [1]: 0.0398 nM
SMILES: CN(C)C(=O)c1cccc(S(=O)(=O)N2CCC[C@H]2C(=O)O[C@@H](Cc2c(Cl)c[n+]([O-])cc2Cl)c2ccc(OC(F)F)c(OCC3CC3)c2)c1

SMILES: COc1cc(C(=O)O[C@@H](Cc2c(Cl)c[n+]([O-])cc2Cl)c2ccc(OC)c(OC)c2)ccc1CNC(C(=O)O[C@H]1CN2CCC1CC2)c1ccccc1 (some centres not stated)
Ki [2]: 0.631 nM
IC50 [1]: 5.01 nM

SMILES: COc1ccc([C@H](Cc2c(Cl)c[n+]([O-])cc2Cl)OC(=O)c2ccc(CNC(C(=O)O[C@H]3CN4CCC3CC4)c3ccccc3)cc2)cc1OC (some centres not stated)
Ki [2]: 0.251 nM
IC50 [1]: 2.51 nM

SMILES: CCOc1cc([C@H](Cc2c(Cl)c[n+]([O-])cc2Cl)OC(=O)c2ccc(CN[C@](CO)(C(=O)O[C@H]3CN4CCC3CC4)c3ccccc3)s2)ccc1OC
Ratio ED50 [3]: 7.7
ED50 (Rattus norvegicus [4]): 0.0031 µmol/kg
Ki [2]: 0.251 nM
IC50 (Trachea): 3.98 nM
IC50 [5]: 0.398 nM
Activity (Rattus norvegicus [6]): 82%
ED50 (Rattus norvegicus [7]): 0.024 µmol/kg
IC50 [1]: 0.631 nM
Activity (Rattus norvegicus [8]): 89%

SMILES: CCOc1cc([C@H](Cc2c(Cl)cncc2Cl)OC(=O)c2ccc(CN[C@@](CO)(C(=O)O[C@H]3CN4CCC3CC4)c3ccccc3)s2)ccc1OC
Ki [2]: 3.16 nM
IC50 [1]: 7.94 nM

SMILES: CCOc1cc([C@@H](Cc2c(Cl)c[n+]([O-])cc2Cl)OC(=O)c2ccc(CN[C@@](CO)(C(=O)O[C@H]3CN4CCC3CC4)c3ccccc3)s2)ccc1OC
Ki [2]: 25.1 nM
IC50 [1]: 6.31 nM

SMILES: CCOc1cc(C(=O)O[C@@H](Cc2c(Cl)c[n+]([O-])cc2Cl)c2ccc(OC)c(OC)c2)ccc1CNC(C(=O)O[C@H]1CN2CCC1CC2)c1ccccc1 (some centres not stated)
Ki [2]: 1 nM
IC50 [1]: 7.94 nM

SMILES: COc1ccc([C@H](Cc2c(Cl)c[n+]([O-])cc2Cl)OC(=O)c2ccc(CNC(C(=O)O[C@H]3CN4CCC3CC4)c3ccccc3)c(OCC3CC3)c2)cc1OC (some centres not stated)
Ki [2]: 2.51 nM
IC50 [1]: 1 nM

SMILES: COc1ccc([C@H](Cc2c(Cl)c[n+]([O-])cc2Cl)OC(=O)c2ccc(CNC(C)(C(=O)O[C@H]3CN4CCC3CC4)c3ccccc3)s2)cc1OC (stereo in doubt; 1f)
half-life at 5 µM [9]: 2.9 h
Ki [2]: 0.2 nM
IC50 (Trachea): 2.51 nM
CLH [10]: 481 µL/min/mg
IC50 [5]: 15.8 nM
half-life at 1 µM ([11]; lung S9 fraction): 1.83 h
IC50 [1]: 3.98 nM
microsomal CLint at 1 µM ([12]; liver microsomes, read-out: CLH): 470 µL/min/mg
t1/2 [13]: 4.67 h
half-life at 5 µM [14]: 1.43 h

SMILES: COc1ccc([C@H](Cc2c(Cl)c[n+]([O-])cc2Cl)OC(=O)c2ccc(CNC(C)(C(=O)O[C@H]3CN4CCC3CC4)c3ccccc3)s2)cc1OC (stereo in doubt; 1s)
t1/2 ([9]; 3 h, 5 µM): 3.18 h
Ki [2]: 0.158 nM
pIC50 (Trachea): 8.5
CLH [10]: 48 µL/min/mg
pIC50 ([5]; pbmc): 7.9
t1/2 ([11]; s9, 1 h, 1 µM, 1 h): 2.08 h
IC50 [1]: 1.26 nM
CLH ([12]; microsomes, 1 h, 1 µM): 481 µL/min/mg
t1/2 [13]: 1.82 h
t1/2 ([14]; 3 h, 5 µM): 0.983 h

SMILES: CCC(NCc1ccc(C(=O)O[C@@H](Cc2c(Cl)c[n+]([O-])cc2Cl)c2ccc(OC)c(OC)c2)s1)(C(=O)O[C@H]1CN2CCC1CC2)c1ccccc1 (stereo in doubt; 2f)
Ki [2]: 0.316 nM
IC50 (Trachea): 25.1 nM
IC50 [5]: 2.51 nM
IC50 [1]: 2.51 nM

Reference: ChEMBL document CHEMBL5360646, “Optimization of M3 Antagonist-PDE4 Inhibitor (MAPI) Dual Pharmacology Molecules for the Treatment of COPD” (J Med Chem, 2023)
